# Structures can show the parent of a compound that is named as a salt.
# Biological target: adenosine A2A receptor (Homo sapiens, UniProt P29274)
# Assay: A2A receptor agonist assay, method of Murphree et al, Molecular Pharmacology 61, 455-462 (2002)
# Format: binding
# Settings: method of L. J. Murphree et al
# Source text: Compounds of formula I and their pharmaceutically acceptable salts are useful as pharmaceuticals. In particular, they activate the adenosine A2A receptor, i.e. they act as A2A receptor agonists.
# Sequence of adenosine A2A receptor (P29274 whole entry): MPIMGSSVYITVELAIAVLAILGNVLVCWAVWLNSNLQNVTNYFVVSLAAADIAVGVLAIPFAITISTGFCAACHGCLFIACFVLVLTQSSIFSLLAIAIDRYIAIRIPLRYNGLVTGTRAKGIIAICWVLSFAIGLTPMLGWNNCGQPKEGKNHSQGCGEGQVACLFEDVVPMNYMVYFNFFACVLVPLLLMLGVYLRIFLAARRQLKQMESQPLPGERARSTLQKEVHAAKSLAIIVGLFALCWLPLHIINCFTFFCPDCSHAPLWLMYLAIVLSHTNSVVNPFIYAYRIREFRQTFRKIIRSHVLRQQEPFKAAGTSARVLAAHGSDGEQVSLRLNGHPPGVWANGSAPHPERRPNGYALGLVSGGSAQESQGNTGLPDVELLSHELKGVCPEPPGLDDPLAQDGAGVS
row,Structure (SMILES),Ki
1,"CCC(=O)N[C@H]1C[C@@H](n2cnc3c(NCC(c4ccccc4)c4ccccc4)nc(C(=O)NCCNC(=O)NC4CCN(c5ccccn5)CC4)nc32)[C@H](O)[C@@H]1O [Example 38, 9-((1R,2S,3R,4S)-2,3-Dihydroxy-4-propionylamino-cyclopentyl)-6-(2,2-diphenyl-ethylamino)-9H-purine-2-carboxylic acid {2-[3-(3,4,5,6-tetrahydro-2H-[1,2]bipyridinyl-4-yl)ureido]-ethyl}-amide]",2 nM
2,"CCC(=O)N[C@H]1C[C@@H](n2cnc3c(N)nc(NCCc4ccccc4)nc32)[C@H](O)[C@@H]1O [Example 2, N-[(1S,2R,3S,4R)-4-(6-Amino-2-phenethylamino-purin-9-yl)-2,3-dihydroxy-cvclcpentyl]-propionamide trifluoroacetate]",18 nM
3,"NC1CCN(c2nc(NCC(c3ccccc3)c3ccccc3)c3ncn(C4CC(NC(=O)C5CCC5)C(O)C4O)c3n2)C1 [Example 33, Cyclobutanecarboxylic acid {(1S,2R,3S,4R)-4-[2-((R)-3-amino-pyrrolidin-1-yl)-6-(2,2-diphenyl-ethylamino-3)-purin-9-yl]-2,3-dihydroxy-cyclopentyl}-amide]",52 nM
4,"CCC(=O)N[C@H]1C[C@@H](n2cnc3c(NCCC(c4ccccc4)c4ccccc4)nc(NCCc4cn(CC)cn4)nc32)[C@H](O)[C@@H]1O [Example 61, N-((1S,2R,3S,4R)-4-{6-(3,3-diphenyl-propyl-amino)-2-[2-(1-ethyl-1H-imidazol-4-yl)-ethylamino]-purin-9-yl-2,3-dihydroxy-cyclopentyl}-propionamide trifluoroacetate]",9 nM
5,"CCCCC#Cc1nc(NCC(c2ccccc2)c2ccccc2)c2ncn([C@@H]3C[C@H](NC(=O)CC)[C@@H](O)[C@H]3O)c2n1 [Example 6, N-{(1S,2R,3S,4R)-4-[6-(2,2-Diphenyl-ethylamino)-2-hex-1-ynyl-purin-9-yl]-2,3-dihydroxy-cyclopentyl}-propionamide]",8 nM
6,"CCC(=O)N[C@H]1C[C@@H](n2cnc3c(NCC(c4ccccc4)c4ccccc4)nc(N4CC[C@@H](NC(=O)N[C@@H]5CCNC5)C4)nc32)[C@H](O)[C@@H]1O [Example 39, N-((1S,2R,3S,4R)-4-{6-(2,2-Diphenyl-ethylamino)-2-[(R)-3-((R)-3-pyrrolidin-3-ylureido)-pyrrolidin-1-yl]-purin-9-yl}-2,3-dihydroxy-cyclopentyl)-propionamide trifluoroacetate]",3 nM
7,"CCC(=O)N[C@H]1C[C@@H](n2cnc3c(NCC(c4ccccc4)c4ccccc4)nc(C(=O)NCCNC(=O)N[C@H]4CCN(c5ccccn5)C4)nc32)[C@H](O)[C@@H]1O [Example 47, 9-((1R,2S,3R,4S)-2,3-Dihydroxy-4-propionylamino-cyclopentyl)-6-(2,2-diphenyl-ethylamino)-9H-purine-2-carboxylic acid {2-[3-((S)-1-pyridin-2-yl-pyrrolidin-3-yl)-ureido]-ethyl}-amide trifluoroacetate]",2 nM
